Measured values: PubChem BioAssay (NCI)
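1) Cells in 96-well plates. 2) Compound, 48 h, 5 concentrations. 3) Linear interpolation between surrounding doses. 4) Unreached endpoint = highest concentration. TGI is the concentration that stops growth completely.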

Experiments:
Assay in all cases: growth of human tumour cells (NCI), 48 h
[1] = system: CCRF-CEM leukemia
[2] = system: MDA-N
[3] = system: HCC-2998 colon
[4] = system: NCI-H23 lung
[5] = system: NCI-H226 lung
[6] = system: MALME-3M melanoma
[7] = system: BT-549 breast
[8] = system: HOP-62 NSCLC
[9] = system: UO-31 renal
[10] = system: SF-295 CNS
[11] = system: SK-MEL-2 melanoma
[12] = system: HOP-92 NSCLC
[13] = system: CAKI-1 renal
[14] = system: HT29 colon
[15] = system: HS 578T breast
[16] = system: TK-10 renal
[17] = system: OVCAR-4 ovarian
[18] = system: RXF 393 renal
[19] = system: SNB-75 CNS
[20] = system: MDA-MB-231 breast
[21] = system: KM12 colon
[22] = system: SF-268 CNS
[23] = system: HCT-15 colon
[24] = system: T-47D breast
[25] = system: MCF7 breast
[26] = system: PC-3 prostate
[27] = system: COLO 205 colon
[28] = system: OVCAR-8 ovarian
[29] = system: UACC-257 melanoma
[30] = system: SR leukemia
[31] = system: SW-620 colon
[32] = system: A498 renal
[33] = system: RPMI-8226 leukemia
[34] = system: A549 NSCLC
[35] = system: ACHN renal
[36] = system: HCT-116 colon
[37] = system: DU-145 prostate
[38] = system: M14 melanoma
[39] = system: MDA-MB-435
[40] = system: MOLT-4 leukemia
[41] = system: 786-0 renal
[42] = system: SF-539 CNS
[43] = system: IGROV1 ovarian
[44] = system: U251 CNS
[45] = system: UACC-62 melanoma
[46] = system: NCI-H522 lung
[47] = system: OVCAR-5 ovarian
[48] = system: K-562 leukemia
[49] = system: SK-MEL-28 melanoma
[50] = system: NCI/ADR-RES ovarian
[51] = system: OVCAR-3 ovarian
[52] = system: SK-MEL-5 melanoma
[53] = system: NCI-H460 lung
[54] = system: SN12C renal
[55] = system: SK-OV-3 ovarian

Measured: TGI

COc1ccc(C2SCC(=O)N2N=C2NC(=O)CC(=O)N2)cc1 (stereo not given)
> 100 µM: [1] | [2] | [3] | [4] | [5] | [6] | [7] | [8] | [9] | [10] | [11] | [12] | [13] | [14] | [15] | [16] | [17] | [18] | [19] | [20] | [21] | [22] | [23] | [24] | [25] | [26] | [27] | [28] | [29] | [30] | [31] | [32] | [33] | [34] | [35] | [36] | [37] | [38] | [39] | [40] | [41] | [42] | [43] | [44] | [45] | [46] | [47] | [48] | [49] | [50] | [51] | [52] | [53] | [54] | [55]
